What was measured:
Assay in all cases: Test C greenhouse herbicide test, pre- and postemergence
Assay type in all cases: in vivo
[1] = test system: nutsedge, yellow (yellow nutsedge, Cyperus esculentus)
Excerpt: (§1) Seeds of plant species selected from blackgrass (Alopecurus myosuroides), ryegrass, Italian (Italian ryegrass, Lolium multiflorum), wheat (winter wheat, Triticum aestivum), galium (catchweed bedstraw, Galium aparine), corn (Zea mays), large crabgrass, large (large crabgrass, Digitaria sanguinalis), foxtail, giant (giant foxtail, Setaria faberii), johnsongrass (Sorghum halepense), lambsquarters (Chenopodium album), morningglory (Ipomoea coccinea), nutsedge, yellow (yellow nutsedge, Cyperus esculentus), pigweed (Amaranthus retroflexus), ragweed (common ragweed, Ambrosia elatior), soybean (Glycine max), barnyardgrass (Echinochloa crus-galli), oilseed rape (Brassica napus), waterhemp (common waterhemp, Amaranthus rudis), and velvetleaf (Abutilon theophrasti) were planted into a blend of loam soil and sand and treated preemergence with test chemicals formulated in a non-phytotoxic solvent mixture which included a surfactant.
(§2) At the same time, plants selected from these crop and weed species and also chickweed (common chickweed, Stellaria media), kochia (Kochia scoparia), and oat, wild (wild oat, Avena fatua), were planted in pots containing Redi-Earth® planting medium (Scotts Company, 14111 Scottslawn Road, Marysville, Ohio 43041) comprising spaghnum peat moss, vermiculite, wetting agent and starter nutrients and treated with postemergence applications of test chemicals formulated in the same manner. Plants ranged in height from 2 to 18 cm (1- to 4-leaf stage) for postemergence treatments. Treated plants and controls were maintained in a greenhouse for 13 to 15 d, after which time all species were compared to controls and visually evaluated. Plant response ratings, summarized in Table C, are based on a scale of 0 to 100 where 0 is no effect and 100 is complete control. A dash (-) response means no test result.

[2] = test system: blackgrass (Alopecurus myosuroides)
Excerpt: as §1, §2

[3] = test system: lambsquarters (Chenopodium album)
Excerpt: as §1, §2

[4] = test system: barnyardgrass (Echinochloa crus-galli)
Excerpt: as §1, §2

soybean (Glycine max) = test system: soybean (Glycine max)
Excerpt: as §1, §2

[5] = test system: ragweed (common ragweed, Ambrosia elatior)
Excerpt: as §1, §2

[6] = test system: foxtail, giant (giant foxtail, Setaria faberii)
Excerpt: as §1, §2

corn (Zea mays) = test system: corn (Zea mays)
Excerpt: as §1, §2

[7] = test system: waterhemp (common waterhemp, Amaranthus rudis)
Excerpt: as §1, §2

[8] = test system: oilseed rape (Brassica napus)
Excerpt: as §1, §2

[9] = test system: velvetleaf (Abutilon theophrasti)
Excerpt: as §1, §2

[10] = test system: ryegrass, Italian (Italian ryegrass, Lolium multiflorum)
Excerpt: as §1, §2

[11] = test system: morningglory (Ipomoea coccinea)
Excerpt: as §1, §2

[12] = test system: galium (catchweed bedstraw, Galium aparine)
Excerpt: as §1, §2

[13] = test system: crabgrass, large (large crabgrass, Digitaria sanguinalis)
Excerpt: as §1, §2

[14] = Postemergence, 31 g ai/ha, 0 to 100 scale (0 no effect, 100 complete control)
[15] = Postemergence, 125 g ai/ha, scale 0 to 100, 0 is no effect, 100 is complete control
[16] = Postemergence, 250 g ai/ha, scale 0 to 100, 0 no effect, 100 complete control, 13 to 15 d
[17] = Preemergence, 31 g ai/ha, scale 0 to 100, 0 is no effect, 100 is complete control
[18] = Preemergence, 62 g ai/ha, scale 0 to 100, 0 is no effect, 100 is complete control
[19] = Preemergence, 125 g ai/ha, scale 0 to 100, 0 is no effect, 100 is complete control
[20] = Preemergence, 250 g ai/ha, scale 0 to 100, 0 no effect, 100 complete control
[21] = postemergence, 62 g ai/ha, scale 0 to 100, 0 no effect, 100 complete control

## Cc1nn(C)c(=O)c(-c2c(C)sc3ccc(Br)cc23)c1O [Compound 22]
[1]; [14]
  Nutsedge, Yellow plant response rating: 35
[1]; [15]
  Plant response rating, Nutsedge, Yellow: 65
[1]; [16]
  Plant response rating, Nutsedge, Yellow: 65
[1]; [17]
  Plant response rating, Nutsedge, Yellow: 55
[1]; [18]
  Plant response rating, Nutsedge, Yellow: 45
[1]; [19]
  Plant response rating, Nutsedge, Yellow: 70
[1]; [20]
  Nutsedge, Yellow plant response rating: 70
[1]; [21]
  Nutsedge, Yellow plant response rating: 50
[2]; [14]
  Blackgrass plant response rating: 0
[2]; [15]
  Plant response rating, Blackgrass: 20
[2]; [16]
  Plant response rating, Blackgrass: 20
[2]; [17]
  Plant response rating, Blackgrass: 5
[2]; [18]
  Plant response rating, Blackgrass: 20
[2]; [19]
  Plant response rating, Blackgrass: 40
[2]; [20]
  Blackgrass plant response rating: 45
[2]; [21]
  Blackgrass plant response rating: 0
[3]; [14]
  Lambsquarters plant response rating: 70
[3]; [15]
  Plant response rating, Lambsquarters: 90
[3]; [16]
  Plant response rating, Lambsquarters: 90
[3]; [17]
  Plant response rating, Lambsquarters: 25
[3]; [18]
  Plant response rating, Lambsquarters: 45
[3]; [19]
  Plant response rating, Lambsquarters: 90
[3]; [20]
  Lambsquarters plant response rating: 90
[3]; [21]
  Lambsquarters plant response rating: 85
[4]; [14]
  Barnyardgrass plant response rating: 5
[4]; [15]
  Plant response rating, Barnyardgrass: 10
[4]; [16]
  Plant response rating, Barnyardgrass: 15
[4]; [17]
  Plant response rating, Barnyardgrass: 5
[4]; [18]
  Plant response rating, Barnyardgrass: 5
[4]; [19]
  Plant response rating, Barnyardgrass: 5
[4]; [20]
  Barnyardgrass plant response rating: 60
[4]; [21]
  Barnyardgrass plant response rating: 5
Soybean (Glycine max); [14]
  Soybean plant response rating: 0
Soybean (Glycine max); [15]
  Plant response rating, Soybean: 0
Soybean (Glycine max); [16]
  Plant response rating, Soybean: 0
Soybean (Glycine max); [18]
  Plant response rating, Soybean: 0
Soybean (Glycine max); [19]
  Plant response rating, Soybean: 0
Soybean (Glycine max); [20]
  Soybean plant response rating: 5
Soybean (Glycine max); [21]
  Soybean plant response rating: 0
[5]; [14]
  Ragweed plant response rating: 70
[5]; [15]
  Plant response rating, Ragweed: 90
[5]; [16]
  Plant response rating, Ragweed: 100
[5]; [17]
  Plant response rating, Ragweed: 30
[5]; [18]
  Plant response rating, Ragweed: 75
[5]; [19]
  Plant response rating, Ragweed: 90
[5]; [20]
  Ragweed plant response rating: 100
[5]; [21]
  Ragweed plant response rating: 75
[6]; [14]
  Foxtail, Giant plant response rating: 10
[6]; [15]
  Plant response rating, Foxtail, Giant: 40
[6]; [16]
  Plant response rating, Foxtail, Giant: 35
[6]; [17]
  Plant response rating, Foxtail, Giant: 5
[6]; [18]
  Plant response rating, Foxtail, Giant: 15
[6]; [19]
  Plant response rating, Foxtail, Giant: 55
[6]; [20]
  Foxtail, Giant plant response rating: 85
[6]; [21]
  Foxtail, Giant plant response rating: 15
Corn (Zea mays); [14]
  Corn plant response rating: 0
Corn (Zea mays); [15]
  Plant response rating, Corn: 5
Corn (Zea mays); [16]
  Plant response rating, Corn: 5
Corn (Zea mays); [17]
  Plant response rating, Corn: 0
Corn (Zea mays); [18]
  Plant response rating, Corn: 0
Corn (Zea mays); [19]
  Plant response rating, Corn: 0
Corn (Zea mays); [20]
  Corn plant response rating: 35
Corn (Zea mays); [21]
  Corn plant response rating: 5
[7]; [14]
  Waterhemp plant response rating: 75
[7]; [15]
  Plant response rating, Waterhemp: 75
[7]; [16]
  Plant response rating, Waterhemp: 90
[7]; [18]
  Plant response rating, Waterhemp: 80
[7]; [19]
  Plant response rating, Waterhemp: 100
[7]; [20]
  Waterhemp plant response rating: 100
[7]; [21]
  Waterhemp plant response rating: 70
[8]; [14]
  Oilseed Rape plant response rating: 5
[8]; [15]
  Plant response rating, Oilseed Rape: 90
[8]; [16]
  Plant response rating, Oilseed Rape: 75
[8]; [17]
  Plant response rating, Oilseed Rape: 0
[8]; [18]
  Plant response rating, Oilseed Rape: 5
[8]; [19]
  Plant response rating, Oilseed Rape: 5
[8]; [20]
  Oilseed Rape plant response rating: 80
[8]; [21]
  Oilseed Rape plant response rating: 15
[9]; [14]
  Velvetleaf plant response rating: 20
[9]; [15]
  Plant response rating, Velvetleaf: 80
[9]; [16]
  Plant response rating, Velvetleaf: 80
[9]; [18]
  Plant response rating, Velvetleaf: 60
[9]; [19]
  Plant response rating, Velvetleaf: 75
[9]; [20]
  Velvetleaf plant response rating: 98
[9]; [21]
  Velvetleaf plant response rating: 50
[10]; [14]
  Ryegrass, Italian plant response rating: 60
[10]; [15]
  Plant response rating, Ryegrass, Italian: 90
[10]; [16]
  Plant response rating, Ryegrass, Italian: 90
[10]; [17]
  Plant response rating, Ryegrass, Italian: 90
[10]; [18]
  Plant response rating, Ryegrass, Italian: 90
[10]; [19]
  Plant response rating, Ryegrass, Italian: 95
[10]; [20]
  Ryegrass, Italian plant response rating: 95
[10]; [21]
  Ryegrass, Italian plant response rating: 70
[11]; [14]
  Morningglory plant response rating: 100
[11]; [15]
  Plant response rating, Morningglory: 100
[11]; [16]
  Plant response rating, Morningglory: 100
[11]; [17]
  Plant response rating, Morningglory: 30
[11]; [18]
  Plant response rating, Morningglory: 85
[11]; [19]
  Plant response rating, Morningglory: 100
[11]; [20]
  Morningglory plant response rating: 100
[11]; [21]
  Morningglory plant response rating: 100
[12]; [14]
  Galium plant response rating: 90
[12]; [15]
  Plant response rating, Galium: 95
[12]; [16]
  Plant response rating, Galium: 95
[12]; [17]
  Plant response rating, Galium: 90
[12]; [18]
  Plant response rating, Galium: 90
[12]; [19]
  Plant response rating, Galium: 95
[12]; [20]
  Galium plant response rating: 95
[12]; [21]
  Galium plant response rating: 90
[13]; [14]
  Crabgrass, Large plant response rating: 0
[13]; [15]
  Plant response rating, Crabgrass, Large: 5
[13]; [16]
  Plant response rating, Crabgrass, Large: 5
[13]; [17]
  Plant response rating, Crabgrass, Large: 0
[13]; [18]
  Plant response rating, Crabgrass, Large: 0
[13]; [19]
  Plant response rating, Crabgrass, Large: 0
[13]; [20]
  Crabgrass, Large plant response rating: 35
[13]; [21]
  Crabgrass, Large plant response rating: 5

From patent US10597388B2, “Pyridazinone herbicides” (FMC CORPORATION, priority 2014, dated 2020)
